{"source": "patent US6180629A", "about": "“[4,5]-Fused-1,3-disubstituted-1,2-diazine-6-one derivatives with nitrogen containing substitutents in position one for the treatment of neoplasia” (Cell Pathways, Inc., priority 1998, dated 2001)", "key": {"[1]": {"system": "human colon carcinoma cell line, SW-480", "experiment": "Growth inhibition of SW-480 human colon carcinoma cells, Sulforhodamine B (SRB) protein binding assay, six days", "type": "cell-based", "settings": "SW480, 144 h", "description": "The compounds of Examples 1-3 were assayed for their growth inhibitory activity on the human colon carcinoma cell line, SW-480 obtained from ATCC (Rockville, Md.), to ascertain the degree of growth inhibition. Growth inhibition of this cell line is indicative of a benefit on precancerous lesions and neoplasms. The cell line and growth assay employed for such experiments are well characterized, and are used to evaluate the anti-neoplastic properties of NSAIDs. The assay is used by the United States National Cancer Institute in its screening program for new anti-cancer drugs.\nDrug stock solutions were made in 100% DMSO and were then diluted with RPMI media for cell culture testing. All drug solutions were prepared fresh on the day of testing. The cultured cells were obtained at passage #99 and grown in RPMI media supplemented with 5% fetal calf serum, and 2 mM glutamine, 100 u/ml penicillin, 100 U/ml streptomycin, and 0.25 μg/ml amphotericin. The cultures were maintained in a humidified atmosphere of 95% air and 5% CO2 at 37° C. The cultures were passaged at preconfluent densities using a solution of 0.05% trypsin and 0.53 mM EDTA. Cells were plated at 1000 cells/well for 96 well flat-bottom microtiter plates.\nTumor cell growth inhibition was assessed using the Sulforhodamine B (SRB) protein binding assay. In this assay, tumor cells were plated in 96-well plates and treated with drug-containing media for six days (continuous exposure). For each plate, 6 wells were designated as no treatment controls, six wells as vehicle (0.1% DMSO) controls, and the remaining wells for drug dilutions with three wells per drug concentration. At the end of the exposure period, the cells were fixed and stained with sulforhodamine B, a protein binding dye. The dye was then solubilized, and the optical density of the resulting solution was determined on a 96-well plate reader. The mean dye intensity of the treated wells was then divided by the mean dye intensity in the control wells (6 wells of each) to determine the effect of the drug on the cells. Dye intensity is proportional to the number of cells or amount of protein per well. The resultant \"percent inhibition\" value then represents the degree of growth inhibition caused by the drug.\nAn IC50 value was also determined for the compound of Example 3. This value is equivalent to the concentration of drug needed to inhibit tumor cell growth by 50% relative to a vehicle control. IC50 value was obtained graphically by connecting the mean values for each drug concentration tested. Each experiment included at least three wells per drug concentration. Concentration was plotted on a log scale on the X-axis."}, "[2]": {"system": "SW-480 colon adenocarcinoma cells", "experiment": "Apoptosis (DNA fragmentation) in SW-480 colon adenocarcinoma cells, Cell Death Detection ELISA", "type": "cell-based, human", "settings": "for fold induction at 100 µM: SW480, read-out: DNA Fragmentation FS (Fold stimulation, FS=ODmax/ODveh); for fold induction at 100 µM / EC50: SW-480, 48 hrs; for Apoptosis Level (Mean OD Value ± SD): vehicle 0.175 ± 0.02", "description": "Apoptosis was measured using an assay of cell death based on a characteristic feature of apoptotic cells (i.e., fragmented DNA). Briefly, SW-480 colon adenocarcinoma cells were plated in 96-well microtitre plates (\"MTP\") at a density of 10K cells/well in 180 μl and were incubated for 24 hrs. Cells were then treated with 20 μl aliquots of appropriately diluted compound, and allowed to incubate for an additional 48 hrs.\nAfter the incubation, samples were prepared according to the following steps. The MTP was centrifuged (15 min., 1000 rpm) and the supernatant was carefully removed by fast inversion of the MTP. The cell pellets in each well were resuspended in 200 μl lysis buffer and incubated for 45 min. at room temperature to lyse the cells. The lysates were then centrifuged (15 min., 1000 rpm) and 20 μl aliquots of the supernatant (=cytoplasmicfraction) were transferred into the streptavidin coated MTP for analysis. Care was taken not to shake the lysed pellets in the MTP (=cell nucleii containing high molecular weight, unfragmented DNA). Samples were analyzed immediately, because storage at 4° C. or -20° C. reduces the ELISA-signals.\nSamples were then processed according to a DNA fragmentation assay protocol, and dose-response curves were generated based on optical density readings. Quantification of DNA was done by a commercially available photometric enzyme-immunoassay manufactured by Mannheim-Boehringer under the name \"Cell Death Detection ELISA^plus \". The assay is based on a quantitative sandwich-enzyme-immunoassay-principle using mouse monoclonal antibodies directed against DNA and histones, respectively. This allows the specific determination of mono and oligonucleosomes in the cytoplasmatic fraction of cell lysates. In brief, the assay procedure is as follows. The sample (cell-lysate, serum, culture-supernatant etc.) is placed into a streptavidin-coated MTP. Subsequently, a mixture of anti-histone-biotin and anti-DNA-POD is followed by incubation for 2 hours. During the incubation period, the anti-histone antibody binds to the histone-component of the nucleosomes and simultaneously fixes the immunocomplex to the streptavidin-coated MTP via its biotinylation. Additionally, the anti-DNA-POD antibody reacts with the DNA component of the nucleosomes. After removal of unbound antibodies by a washing step, the amount of nucleosomes is quantified by the POD retained in the immunocomplex. POD is determined photometrically with ABTS® (2,2'-Azino-di[3-ethylbenzthiazolin-sulfonat]) as substrate.\nFold stimulation (FS=ODmax/ODveh), an indicator of apoptotic response, was determined for each compound tested."}, "[3]": {"settings": "chronic administration, high cancer-risk patients; cited from earlier work"}, "colonic polyps": {"system": "colonic polyps", "settings": "patients; cited from earlier work"}}, "data": [{"molecule": "O=C(Cn1nc(-c2ccccc2)c2ccccc2c1=O)NCc1ccccc1", "note": "[Example 1, 2-(1-Oxo-4-Phenylphthalazin-2-yl)-N-Benzylethanamide]", "values": [{"measurement": "inhibition at 100 µM", "setting": "[1]; six days continuous exposure", "value": 90, "unit": "%"}, {"measurement": "fold induction at 100 µM", "setting": "[2]; Homo sapiens", "value": 7.3}]}, {"molecule": "O=C(Cn1nc(-c2ccc(Cl)cc2)c2ccccc2c1=O)NCc1ccccc1", "note": "[Example 3, 2-[4-(4-Chlorophenyl)-1-Oxo-Phthalazin-2-yl]-N-Benzylethanamide]", "values": [{"measurement": "inhibition at 100 µM", "setting": "[1]; six days continuous exposure", "value": 86.1, "unit": "%"}, {"measurement": "activity at 0.001 µM", "setting": "[1]; Dose 0.001 μM, read-out: Growth Inhibition (% Vehicle ± SD)", "value": "105 ± 20", "unit": "%"}, {"measurement": "activity at 0.01 µM", "setting": "[1]; Dose 0.01 μM, read-out: Growth Inhibition (% Vehicle ± SD)", "value": "99 ± 11.9", "unit": "%"}, {"measurement": "activity at 0.1 µM", "setting": "[1]; Dose 0.1 μM, read-out: Growth Inhibition (% Vehicle ± SD)", "value": "91 ± 5", "unit": "%"}, {"measurement": "activity at 1 µM", "setting": "[1]; Dose 1.0 μM, read-out: Growth Inhibition (% Vehicle ± SD)", "value": "94 ± 17.9", "unit": "%"}, {"measurement": "activity at 10 µM", "setting": "[1]; Dose 10.0 μM, read-out: Growth Inhibition (% Vehicle ± SD)", "value": "34 ± 17.8", "unit": "%"}, {"measurement": "activity at 100 µM", "setting": "[1]; Dose 100.0 μM, read-out: Growth Inhibition (% Vehicle ± SD)", "value": "6 ± 1.6", "unit": "%"}, {"measurement": "IC50", "setting": "[1]; six days continuous exposure, read-out: IC50 (tumor cell growth, relative to vehicle control)", "value": 5.18, "unit": "µM"}, {"measurement": "Apoptosis Level (Mean OD Value ± SD)", "setting": "[2]; Dose 0.001 μM", "value": "0.156 ± 0.02", "unit": "OD"}, {"measurement": "Apoptosis Level (Mean OD Value ± SD)", "setting": "[2]; Dose 0.01 μM", "value": "0.165 ± 0.03", "unit": "OD"}, {"measurement": "Apoptosis Level (Mean OD Value ± SD)", "setting": "[2]; Dose 0.1 μM", "value": "0.161 ± 0.02", "unit": "OD"}, {"measurement": "Apoptosis Level (Mean OD Value ± SD)", "setting": "[2]; Dose 1.0 μM", "value": "0.208 ± 0.01", "unit": "OD"}, {"measurement": "Apoptosis Level (Mean OD Value ± SD)", "setting": "[2]; Dose 10.0 μM", "value": "1.789 ± 0.32", "unit": "OD"}, {"measurement": "Apoptosis Level (Mean OD Value ± SD)", "setting": "[2]; Dose 100.0 μM", "value": "2.763 ± 0.29", "unit": "OD"}, {"measurement": "EC50", "setting": "[2]; Homo sapiens, SW480, 48 h", "value": 7.2, "unit": "µM"}, {"measurement": "fold induction at 100 µM", "setting": "[2]; Homo sapiens", "value": 6.1}, {"measurement": "EC50", "setting": "[2]", "value": 7.19, "unit": "µM"}]}, {"molecule": "O=C(Cn1nc(-c2ccc(F)cc2)c2ccccc2c1=O)NCc1ccccc1", "note": "[Example 2]", "values": [{"measurement": "inhibition at 100 µM", "setting": "[1]; six days continuous exposure", "value": -7.8, "unit": "%"}, {"measurement": "fold induction at 100 µM", "setting": "[2]; Homo sapiens", "value": 1.2}]}, {"molecule": "CC1=C(CC(=O)O)c2cc(F)ccc2/C1=C\\c1ccc([S+](C)[O-])cc1", "note": "(centres unmarked) [sulindac]", "values": [{"measurement": "gastric side effects", "setting": "[3]", "value": "causes gastric side effects in many such patients"}, {"measurement": "effect on colonic polyps", "setting": "colonic polyps", "value": "Polyps virtually disappear"}]}]}
